What was measured:
[1] = test system: 13-month old male wild type mice; test: Long-term feeding of 13-month old male wild type mice with RIPA-56 chow for two months; format: in vivo
Method: We subsequently chose the 300 mg/kg dose to continuously feed 13-month old male wild type mice for two months to study the long-term effects of blocking necroptosis on testes. […] Additionally, the testosterone level of RIPA-56-treated mice remained high, while that of control mice decreased. […] Finally, the fertility rates of the RIPA-56-treated mice were much higher than those of control mice with 19 out of 25 mice on the RIPA-56 diet were fertile while only 6 out of 23 mice on normal diet produced progeny.

[2] = test system: phospho-MLKL in the testes; test: TSZ-induced necroptosis in testes of mice fed RIPA-56-containing chow; format: in vivo
Method: We therefore evaluated the effects of a newly-identified, highly-potent, and highly-specific RIP1 kinase inhibitor from our laboratory (henceforth ‘RIPA-56’)(Ren et al., 2017) by incorporating it into mouse food at 150 mg/kg and 300 mg/kg doses. We first tested the effect of RIPA-56 on necroptosis in testes by injecting TSZ into testes of 2-month old mice after feeding the mice with increasing concentrations of RIPA-56-containing chow for one week.

Structure (SMILES): CCC(C)(C)C(=O)N(O)Cc1ccccc1 [RIPA-56]
- empty seminiferous tubules ([1]; 300 mg/kg in food, two months): hardly any seminiferous vesicles were empty
- fertility rate (fertile mice) ([1]; 300 mg/kg in food, two months): 19 out of 25
- gross male aging metrics (body weight, fat deposition, libido, fertility, muscle mass, prostate hyperplasia) ([1]; 300 mg/kg in food, two months): more youthful gross male aging metrics
- mass of seminal vesicles ([1]; 300 mg/kg in food, two months): around 1,000 milligrams
- testosterone level ([1]; 300 mg/kg in food, two months): remained high
- body weight ([1]; 300 mg/kg in food, two months, vs control chow diet): weighed less than mice fed with control chow diet
- age-associated weight gain ([1]; necroptosis blocked pharmaceutically): much less age-associated wright gain
- block of necroptosis in testes ([2]; 300 mg/kg dose in chow, one week, TSZ into testes): completely block necroptosis
- appearance of TSZ-induced phospho-MLKL in the testes ([2]; 2-month old mice, chow with increasing concentrations (150 mg/kg and 300 mg/kg) for one week, then TSZ into testes): blocked the appearance of TSZ-induced phospho-MLKL in the testes in a dose-dependent manner
